Results from patent US7109193B2, “Tricyclic diazepines tocolytic oxytocin receptor antagonists” (Wyeth, priority 2001, dated 2006).

Tests used:
[1] = biological target: T1, human vasopressin V2 receptor subtype (Homo sapiens, UniProt P30518); assay: Vasopressin binding in Chinese Hamster Ovary cell membranes expressing human vasopressin V2 subtype receptors; settings: 100 nM, CHO cell membranes, [3H]arginine vasopressin, values without parentheses
T1 construct: host or cells: CHO cells (pZeoSV vector)
T1 sequence (P30518 whole entry): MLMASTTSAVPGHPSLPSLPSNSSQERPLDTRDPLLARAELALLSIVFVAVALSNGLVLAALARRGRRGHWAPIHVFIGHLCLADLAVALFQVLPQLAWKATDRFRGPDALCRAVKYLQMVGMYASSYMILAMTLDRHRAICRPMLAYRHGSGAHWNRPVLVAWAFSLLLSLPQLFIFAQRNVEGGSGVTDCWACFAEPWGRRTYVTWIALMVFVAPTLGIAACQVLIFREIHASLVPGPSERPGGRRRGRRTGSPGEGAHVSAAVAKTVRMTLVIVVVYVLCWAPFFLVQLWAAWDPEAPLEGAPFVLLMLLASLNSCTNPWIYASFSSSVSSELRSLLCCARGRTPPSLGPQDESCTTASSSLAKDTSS
Procedure, shortened: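 Radioligand displacement on membranes from CHO cells stably expressing human V2 receptor, 25 to 50 μg protein/well, in 50 mM Tris-HCl pH 7.4 with MgCl2, BSA and protease inhibitors. [^3H]arginine vasopressin (8 nM working solution) incubated 60 min at room temperature; bound label measured by filtration and scintillation counting.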

Row | Structure (SMILES) | inhibition at 0.1 µM [1] | melting point | V2 % inhibition @ 100 nM [1]
1 | COc1ccccc1-c1ccc(C(=O)N2Cc3ccc(C(=O)N4CC[C@@H](N(C)C)C4)n3Cc3ccccc32)cc1 [Example 279, [(3R)-3-(Dimethylamino)pyrrolidinyl]{10-[(2′-methoxy[1,1′-biphenyl]-4-yl)carbonyl]-10,11-dihydro-5H-pyrrolo[2,1-c][1,4]benzodiazepin-3-yl}methanone] | – | – | 17%
2 | COc1cccc(-c2cc(OC)c(C(=O)N3Cc4ccc(C(=O)N5CCC(N6CCCC6)CC5)n4Cc4ccccc43)cc2Cl)c1 [Example 143, {10-[(6-Chloro-3,3′-dimethoxy[1,1′-biphenyl]-4-yl)carbonyl]-10,11-dihydro-5H-pyrrolo[2,1-c][1,4]benzodiazepin-3-yl}[4-(1-pyrrolidinyl)-1-piperidinyl]methanone] | 7% | – | –
3 | COc1cccc(-c2cc(OC)c(C(=O)N3Cc4ccc(C(=O)N5CCC[C@H]5CN5CCCC5)n4Cc4ccccc43)cc2Cl)c1 [Example 268, {10-[(6-Chloro-3,3′-dimethoxy[1,1′-biphenyl]-4-yl)carbonyl]-10,11-dihydro-5H-pyrrolo[2,1-c][1,4]benzodiazepin-3-yl}[(2S)-2-(1-pyrrolidinylmethyl)pyrrolidinyl]methanone] | – | – | 34%

More lines, main results first:

Row | inhibition at 0.1 µM [1] | melting point | Structure (SMILES) | V2 % inhibition @ 100 nM [1]
4 | 22% | 55 to 64 °C | Cc1cc(C(=O)N2Cc3ccc(C(=O)N(CCCN(C)C)CCCN(C)C)n3Cc3ccccc32)ccc1-c1ccccc1C(F)(F)F [Example 3, 10-[(2-Methyl-2′-trifluoromethyl-[1,1′-biphenyl]-4-yl)-carbonyl]-10,11-dihydro-5H-pyrrolo[2,1-c][1,4]benzodiazepine-3-carboxylic acid bis-(3-dimethylamino-propyl)-amide] | –
5 | 22% | – | COc1cccc(-c2ccc(C(=O)N3Cc4ccc(C(=O)N5CCC(N6CCCCC6)CC5)n4Cc4ccccc43)cc2C)c1 [Example 114, {10-[(2-Methyl-3′-methoxy[1,1′-biphenyl]-4-yl)carbonyl]-10,11-dihydro-5H-pyrrolo[2,1-c][1,4]benzodiazepin-3-yl}[4-(1-piperidinyl)-1-piperidinyl]methanone] | –
6 | 11% | – | Cc1ccccc1-c1ccc(C(=O)N2Cc3ccc(C(=O)NCCN4CCCCC4)n3Cc3ccccc32)cc1 [Example 153, 10-[(2′-Methyl[1,1′-biphenyl]-4-yl)carbonyl]-N-[2-(1-piperidinyl)ethyl]-10,11-dihydro-5H-pyrrolo[2,1-c][1,4]benzodiazepine-3-carboxamide] | –
